# How the values were obtained:
# Format in all cases: cell-based
# [1] = molecular target: wild-type mouse muscle nAChR (αC192S-C193S background) (Mus musculus, UniProt P02716+P04756+P04760, C212S/C213S); assay: Effect of reducing/oxidizing reagents on ACh-induced current amplitude; conditions: DTT 10 mM, 2 min, ACh EC20–50
# [2] = molecular target: mouse muscle nAChR αT254C+L279C (Mus musculus, UniProt P02716+P04756+P04760, C212S/C213S/L299C/T274C); conditions: 2 min
# [3] = molecular target: mouse muscle nAChR αT254C (Mus musculus, UniProt P02716+P04756+P04760, C212S/C213S/T274C); assay: Effect of reducing/oxidizing reagents on ACh-induced current amplitude; conditions: DTT 10 mM, 2 min; T254C; ACh EC20–50
# [4] = molecular target: mouse muscle nAChR αT254C+M278C (Mus musculus, UniProt P02716+P04756+P04760, C212S/C213S/M298C/T274C); conditions: 2 min
# [5] = second DTT 10 mM, after Cu:Phen and EGTA
# mouse muscle nAChR αT254C+M278C, sequence (P04756 21-457 C212S/C213S/T274C/M298C): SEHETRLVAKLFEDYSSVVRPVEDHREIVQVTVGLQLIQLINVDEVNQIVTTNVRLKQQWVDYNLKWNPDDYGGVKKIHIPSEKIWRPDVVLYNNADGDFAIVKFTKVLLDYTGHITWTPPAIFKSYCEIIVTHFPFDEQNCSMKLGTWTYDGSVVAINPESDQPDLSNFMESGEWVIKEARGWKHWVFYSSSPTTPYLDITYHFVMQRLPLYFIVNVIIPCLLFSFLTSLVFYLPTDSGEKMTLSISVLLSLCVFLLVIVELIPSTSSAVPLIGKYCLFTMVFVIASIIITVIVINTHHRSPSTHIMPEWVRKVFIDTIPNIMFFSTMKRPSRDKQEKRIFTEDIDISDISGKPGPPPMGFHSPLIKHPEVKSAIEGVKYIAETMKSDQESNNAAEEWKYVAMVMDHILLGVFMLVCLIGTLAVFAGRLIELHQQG
# mouse muscle nAChR αT254C+M278C, sequence (P09690 24-501 partner): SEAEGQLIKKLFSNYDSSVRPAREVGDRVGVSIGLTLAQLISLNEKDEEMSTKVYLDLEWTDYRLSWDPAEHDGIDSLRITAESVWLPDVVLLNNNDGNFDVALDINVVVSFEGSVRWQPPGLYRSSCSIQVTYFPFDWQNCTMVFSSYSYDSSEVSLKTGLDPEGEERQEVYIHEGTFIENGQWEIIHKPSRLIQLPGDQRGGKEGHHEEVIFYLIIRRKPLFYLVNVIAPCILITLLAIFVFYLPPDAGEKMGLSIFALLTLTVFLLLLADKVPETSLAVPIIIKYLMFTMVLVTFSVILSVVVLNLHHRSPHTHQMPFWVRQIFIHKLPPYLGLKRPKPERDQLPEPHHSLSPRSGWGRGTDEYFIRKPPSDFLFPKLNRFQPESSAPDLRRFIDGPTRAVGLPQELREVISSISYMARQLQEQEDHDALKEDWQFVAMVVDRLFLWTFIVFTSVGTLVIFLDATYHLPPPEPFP
# mouse muscle nAChR αT254C+M278C, sequence (P04760 23-519): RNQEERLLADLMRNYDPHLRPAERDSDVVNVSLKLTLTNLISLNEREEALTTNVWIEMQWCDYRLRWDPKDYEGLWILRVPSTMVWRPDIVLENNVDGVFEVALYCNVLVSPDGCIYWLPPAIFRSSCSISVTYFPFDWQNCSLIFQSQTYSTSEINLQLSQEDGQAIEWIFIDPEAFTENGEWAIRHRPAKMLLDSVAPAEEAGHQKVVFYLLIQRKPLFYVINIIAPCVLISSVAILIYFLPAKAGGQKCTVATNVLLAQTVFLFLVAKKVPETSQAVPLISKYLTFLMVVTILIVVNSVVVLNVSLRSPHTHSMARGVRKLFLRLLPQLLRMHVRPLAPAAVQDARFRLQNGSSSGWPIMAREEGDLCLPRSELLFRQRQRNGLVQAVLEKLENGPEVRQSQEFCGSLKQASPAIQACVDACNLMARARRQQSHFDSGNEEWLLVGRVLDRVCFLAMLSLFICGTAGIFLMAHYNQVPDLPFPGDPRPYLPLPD
# mouse muscle nAChR αT254C+M278C, sequence (P02716 25-520): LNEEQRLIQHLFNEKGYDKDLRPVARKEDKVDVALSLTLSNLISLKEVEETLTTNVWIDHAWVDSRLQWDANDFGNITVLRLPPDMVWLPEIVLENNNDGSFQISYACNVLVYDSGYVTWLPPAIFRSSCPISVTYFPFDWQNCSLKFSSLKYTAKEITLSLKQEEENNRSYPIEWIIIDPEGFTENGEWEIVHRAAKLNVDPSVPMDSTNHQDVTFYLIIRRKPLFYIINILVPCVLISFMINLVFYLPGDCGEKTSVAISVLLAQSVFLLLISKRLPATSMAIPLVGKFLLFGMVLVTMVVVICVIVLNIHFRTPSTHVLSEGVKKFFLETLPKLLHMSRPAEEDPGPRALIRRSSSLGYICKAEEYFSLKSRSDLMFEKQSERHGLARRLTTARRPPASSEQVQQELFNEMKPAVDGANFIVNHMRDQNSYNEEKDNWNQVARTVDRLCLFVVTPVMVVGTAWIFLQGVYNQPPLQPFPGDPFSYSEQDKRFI
# mouse muscle nAChR αT254C+L279C, sequence (P04756 21-457 C212S/C213S/T274C/L299C): as the sequence (P04756 21-457 C212S/C213S/T274C/M298C) above, with C278M, L279C counted along it
# mouse muscle nAChR αT254C+L279C, sequence (P09690 24-501 partner): as the sequence (P09690 24-501 partner) above
# mouse muscle nAChR αT254C+L279C, sequence (P04760 23-519): as the sequence (P04760 23-519) above
# mouse muscle nAChR αT254C+L279C, sequence (P02716 25-520): as the sequence (P02716 25-520) above
# mouse muscle nAChR αT254C, sequence (P04756 21-457 C212S/C213S/T274C): as the sequence (P04756 21-457 C212S/C213S/T274C/M298C) above, with C278M counted along it
# mouse muscle nAChR αT254C, sequence (P09690 24-501 partner): as the sequence (P09690 24-501 partner) above
# mouse muscle nAChR αT254C, sequence (P04760 23-519): as the sequence (P04760 23-519) above
# mouse muscle nAChR αT254C, sequence (P02716 25-520): as the sequence (P02716 25-520) above
# wild-type mouse muscle nAChR (αC192S-C193S background), sequence (P04756 21-457 C212S/C213S): as the sequence (P04756 21-457 C212S/C213S/T274C/M298C) above, with C254T, C278M counted along it
# wild-type mouse muscle nAChR (αC192S-C193S background), sequence (P09690 24-501 partner): as the sequence (P09690 24-501 partner) above
# wild-type mouse muscle nAChR (αC192S-C193S background), sequence (P04760 23-519): as the sequence (P04760 23-519) above
# wild-type mouse muscle nAChR (αC192S-C193S background), sequence (P02716 25-520): as the sequence (P02716 25-520) above
ACh-induced current amplitude after DTT compared to initial current [1],"decrease of current amplitudes by DTT after Cu:Phen [2, 5] [%]",ACh-induced current amplitude after DTT compared to initial current [3],"increase of current amplitudes by DTT after Cu:Phen [4, 5] [%]",SMILES,"EGTA effect on ACh-induced current amplitudes ([2]; EGTA 2 mM, after Cu:Phen) [%]","EGTA effect on ACh-induced current amplitudes ([4]; EGTA 2 mM, after Cu:Phen) [%]"
not significantly altered,47 ± 11,not significantly altered,29 ± 1,"O[C@@H](CS)[C@@H](O)CS (racemic) [DTT, Dithiothreitol]",,
,,,,"O=C(O)CN(CCOCCOCCN(CC(=O)O)CC(=O)O)CC(=O)O [EGTA, Ethylene glycol tetraacetic acid]",−9 ± 3,1 ± 2

# — paper PMC3676432 (Journal of neurochemistry, 2013)
